One test deals with WT STING (Homo sapiens, UniProt Q86WV6, H232R). In words: Differential scanning fluorimetry with WT STING. Format: binding. More on the design: truncated human WT STING or AQ STING (amino acid residues 140-343); 8xHis (N, cleaved yes); SUMO (N, cleaved yes); made in house; host or cells: E. coli Rosetta-gami B (DE3). To be noted: thermal shift, truncated human WT STING 0.1 mg/ml, 150 μM CDN; for ΔTm at 150 µM: read-out: DSF ΔTm WT STING. The source says:
(§1) Both WT and AQ human STING (G230A-R293Q) cDNA were amplified by the use of PCR (Phusion® High-Fidelity DNA Polymerase, cat. #M0530S, NEB, Ipswich, USA) using oligonucleotides hSTING140-BamH-For ([…]) (SEQ ID NO:5) and hSTING379-Not-Rev3 ([…]) (SEQ ID NO:6) from pUNO1-hSTING-WT (cat. #puno1-hstingwt, InvivoGen, San Diego, USA) and pUNO1-hSTING-HAQ plasmids (punol-hsting-haq, InvivoGen, San Diego, USA). Purified PCR products were cleaved with restriction enzymes BamHI (cat. #R0136S, NEB, Ipswich, USA) and Notl (cat. #R0189S, NEB, Ipswich, USA) and cloned into the pSUMO vector linearized with the identical enzymes. Plasmid pSUMO was created by introducing 8-His-SUMO sequence between Ndel and BamHI sites of pHis-parallel2 plasmid (Clontech, Moutain View, USA). pSUMO-STING WT or pSUMO-STING AQ plasmids thus encoded truncated human WT STING or AQ STING (amino acid residues 140-343) with N-terminal 8xHis and SUMO tag.
(§2) The recombinant WT STING and AQ STING proteins were overexpressed in Rosetta-gami B (DE3) competent cells (cat. #71136-3, Merck Millipore, Billerica, USA). Bacterial pellets were re-suspended in ice-cold lysis buffer containing 50 mmol·l^−1 TrisCl (cat. #T1503, Sigma Aldrich, Czech Republic) pH 8.0, 300 mmol·l^−1 NaCl, 3 mmol·l^−1 β-mercaptoethanol (cat. #M6250, Sigma Aldrich, Czech Republic), 10% glycerol (cat. #G5516, Sigma Aldrich, Czech Republic) and 20 mmol·l^−1 imidazole (cat. #15513, Sigma Aldrich, Czech Republic) using Dounce homogenizer. DNase I (cat. #D5025, Sigma Aldrich, Czech Republic) and RNase A (cat. #R6513, Sigma Aldrich, Czech Republic) were added (final concentration 50 μg/ml) together with MgCl2 (final concentration 5 mmol·l^−1) to the homogenate and bacteria were lysed using French Press G-M™ High-Pressure Cell Press Homogenizer (1500 psi, 3 cycles). Lysate was spun 30,000 g for 20 minutes and supernatant was gently stirred with Ni-NTA resin (cat. #745400.25 Macherey-Nagel, Duren, Germany) for 30 minutes. The resin was poured into a chromatography column, washed with 50 ml buffer A (50 mmol·l^−1 TrisCl (pH 8.0), 800 mmol·l^−1 NaCl, 3 mmol·l^−1 (3-mercaptol; 10% glycerol; 20 mmol·l^−1 imidazole) and 8-His-SUMO tagged STING proteins were eluted with 15 ml buffer A containing 300 mmol·l^−1 imidazole. The eluted proteins were cleaved with recombinant SUMO protease (80 μg/ml of protein solution, cat. #12588018, ThermoFisher, Waltham, USA). The proteins were further purified by size exclusion chromatography using HiLoad 16/60 Superdex 75 (cat. #28989333, GE Healthcare Bio-Sciences, Pittsburgh, USA) in 50 mmol·l^−1 Tris Cl buffer pH 7.4 containing 150 mmol·l^−1 NaCl, and 10% glycerol. Proteins were concentrated with Amicon® Ultra-15 10 K device (cat. #UFC901008, Merck Millipore, Billerica, USA) and flash frozen in liquid N2.
(§3) WT and AQ allelic forms of STING protein were diluted to the final concentration 0.1 mg/ml in 100 mmol·l^−1 TrisCl buffer pH 7.4 containing, 150 mmol·l^−1 NaCl, 1:500 SYPRO Orange (cat. #S6650, ThermoFisher, Waltham, USA) and 150 μM CDN or water. 20 μL solutions of the reaction mixtures were pipetted in triplicates into 96 well optical reaction plates and thermal denaturation of samples were performed on real time PCR cycler (LightCycler® 480 Instrument II—Roche, Basel, Switzerland). The first derivative of the thermal denaturation curves was performed to calculate denaturing temperatures of STING—CDN complexes and STING apoproteins. The thermal shift for each CDN was calculated by subtracting the average denaturing temperature of STING apoprotein from the average denaturing temperature of STING CDN complex.
On the technique in general: DSF heats the sample and reads unfolding from a dye or from intrinsic fluorescence.

The next test addresses T1, AQ STING (G230A-R293Q) (Homo sapiens, UniProt Q86WV6, G230A/H232R/R293Q).
T1 construct: truncated human WT STING or AQ STING (amino acid residues 140-343); 8xHis (N, cleaved yes); SUMO (N, cleaved yes); made in house; host or cells: E. coli Rosetta-gami B (DE3)
In words: Differential scanning fluorimetry with AQ STING. Format: binding. To be noted: thermal shift, truncated human AQ STING 0.1 mg/ml, 150 μM CDN; for ΔTm at 150 µM: read-out: DSF ΔTm AQ STING.
Text: as §1, §2, §3

The structures appear in SMILES notation.

The ΔTm is the shift of the melting midpoint relative to a reference.

T1 sequence (Q86WV6 140-343 G230A/H232R/R293Q): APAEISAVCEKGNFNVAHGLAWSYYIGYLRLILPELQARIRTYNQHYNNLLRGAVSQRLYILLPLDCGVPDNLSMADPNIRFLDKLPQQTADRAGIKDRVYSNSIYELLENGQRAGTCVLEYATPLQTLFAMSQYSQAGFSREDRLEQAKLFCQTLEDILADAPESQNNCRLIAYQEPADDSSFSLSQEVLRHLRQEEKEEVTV
Chain of WT STING (Q86WV6 140-343 H232R): as the sequence (Q86WV6 140-343 G230A/H232R/R293Q) above, with A91G, Q154R counted along it

Turning to `Nc1nc2c(ncn2[C@@H]2CO[C@@H]3COP(=O)(O)O[C@H]4[C@H](n5cnc6c(N)ncnc65)CO[C@@H]4COP(=O)(O)O[C@@H]23)c(=O)[nH]1` [Compound 52, (1S,6R,9R,10S,15R,18R)-9-(2-amino-6-oxo-6,9-dihydro-1H-purin-9-yl)-18-(6-amino-9H-purin-9-yl)-3,12-dihydroxy-2,4,7,11,13,16-hexaoxa-3λ^5,12λ^5-diphosphatricyclo[13.3.0.0^6,10]octadecane-3,12-dione], the ΔTm at 150 µM turned out to be 2.4 °C at WT STING and 10.7 °C at AQ STING (G230A-R293Q).

`Nc1ncnc2c1ncn2[C@@H]1CO[C@@H]2COP(=O)(O)O[C@H]3C[C@H](n4cnc5c(N)ncnc54)O[C@@H]3COP(=O)(O)O[C@@H]12` [Compound 50, (1S,6R,8R,10S,15R,18R)-8,18-bis(6-amino-9H-purin-9-yl)-3,12-dihydroxy-2,4,7,11,13,16-hexaoxa-3λ^5,12λ^5-diphosphatricyclo[13.3.0.0^6,10]octadecane-3,12-dione]: the ΔTm at 150 µM at WT STING was determined as 1.8 °C; on AQ STING (G230A-R293Q) it was 9.3 °C.

In the case of `Nc1nc2c(ncn2[C@@H]2O[C@@H]3COP(=O)(O)O[C@H]4[C@H](n5cnc6c(N)ncnc65)CO[C@@H]4COP(=O)(O)O[C@H]3[C@H]2F)c(=O)[nH]1` [Compound 24, (1S,6R,8R,9R,10R,15R,18R)-8-(2-amino-6-oxo-6,9-dihydro-1H-purin-9-yl)-18-(6-amino-9H-purin-9-yl)-9-fluoro-3,12-dihydroxy-2,4,7,11,13,16-hexaoxa-3λ^5,12λ^5-diphosphatricyclo[13.3.0.0^6,10]octadecane-3,12-dione], the ΔTm at 150 µM on WT STING turned out to be 8.5 °C; on AQ STING (G230A-R293Q), 16.9 °C.

With `Nc1nc2c(ncn2[C@@H]2CO[C@@H]3COP(=O)(O)O[C@H]4C[C@H](n5cnc6c(N)ncnc65)O[C@@H]4COP(=O)(O)O[C@@H]23)c(=O)[nH]1` [Compound 53, (1S,6R,8R,10S,15R,18R)-18-(2-amino-6-oxo-6,9-dihydro-1H-purin-9-yl)-8-(6-amino-9H-purin-9-yl)-3,12-dihydroxy-2,4,7,11,13,16-hexaoxa-3λ^5,12λ^5-diphosphatricyclo[13.3.0.0^6,10]octadecane-3,12-dione], the shift in melting temperature (ΔTm) at 150 µM came to 2.9 °C at WT STING and 11.5 °C on AQ STING (G230A-R293Q).

Regarding `Nc1nc2c(ncn2[C@@H]2CO[C@@H]3COP(=O)(O)O[C@H]4[C@@H](F)[C@H](n5cnc6c(N)ncnc65)O[C@@H]4COP(=O)(O)O[C@@H]23)c(=O)[nH]1` [Compound 51, (1S,6R,8R,9R,10R,15R,18R)-18-(2-amino-6-oxo-6,9-dihydro-1H-purin-9-yl)-8-(6-amino-9H-purin-9-yl)-9-fluoro-3,12-dihydroxy-2,4,7,11,13,16-hexaoxa-3λ^5,12λ^5-diphosphatricyclo[13.3.0.0^6,10]octadecane-3,12-dione], the results for the shift in melting temperature (ΔTm) at 150 µM on WT STING and on AQ STING (G230A-R293Q) were 6.8 °C and 15.8 °C, respectively.

In the case of `Nc1ncnc2c1ncn2[C@@H]1CO[C@@H]2COP(=O)(S)O[C@H]3[C@@H](F)[C@H](n4cnc5c(N)ncnc54)O[C@@H]3COP(=O)(S)O[C@@H]12` (stereo partly drawn) [Compound 54, (1S,6R,8R,9R,10R,15R,18R)-8,18-bis(6-amino-9H-purin-9-yl)-9-fluoro-3,12-disulfanyl-2,4,7,11,13,16-hexaoxa-3λ^5,12λ^5-diphosphatricyclo[13.3.0.0^6,10]octadecane-3,12-dione], the shift in melting temperature (ΔTm) at 150 µM worked out at 8.5 °C on WT STING and 17.2 °C at AQ STING (G230A-R293Q).

`Nc1ncnc2c1ncn2[C@@H]1CO[C@@H]2COP(=O)(S)O[C@H]3[C@@H](F)[C@H](n4cnc5c(N)ncnc54)O[C@@H]3COP(=O)(S)O[C@@H]12` (stereo partly drawn) [Compound 55, (1S,6R,8R,9R,10R,15R,18R)-8,18-bis(6-amino-9H-purin-9-yl)-9-fluoro-3,12-disulfanyl-2,4,7,11,13,16-hexaoxa-3λ^5,12λ^5-diphosphatricyclo[13.3.0.0^6,10]octadecane-3,12-dione]: on WT STING, the “DSF ΔTm WT STING” value was found to be 11.0 °C. Also, the “DSF ΔTm AQ STING” value on AQ STING (G230A-R293Q) is 20.0 °C.

Consider `Nc1ncnc2c1ncn2[C@@H]1CC[C@@H]2COP(=O)(O)O[C@H]3[C@@H](F)[C@H](n4cnc5c(N)ncnc54)O[C@@H]3COP(=O)(O)O[C@H]21` [Compound 34, (1R,6R,8R,9R,10R,15R,18R)-8,18-bis(6-amino-9H-purin-9-yl)-9-fluoro-3,12-dihydroxy-2,4,7,11,13-pentaoxa-3λ^5,12λ^5-diphosphatricyclo[13.3.0.0^6,10]octadecane-3,12-dione], for which the thermal shift (ΔTm) at 150 µM on WT STING came to 1.6 °C; on AQ STING (G230A-R293Q) it was 9.2 °C.

For the molecule `Nc1ncnc2c1ncn2[C@@H]1CO[C@@H]2COP(=O)(O)O[C@H]3[C@@H](F)[C@H](n4cnc5c(N)ncnc54)O[C@@H]3COP(=O)(O)O[C@@H]12` [Compound 28, (1S,6R,8R,9R,10R,15R,18R)-8,18-bis(6-amino-9H-purin-9-yl)-9-fluoro-3,12-dihydroxy-2,4,7,11,13,16-hexaoxa-3λ^5,12λ^5-diphosphatricyclo[13.3.0.0^6,10]octadecane-3,12-dione], the shift in melting temperature (ΔTm) at 150 µM came to 5.6 °C on WT STING and 13.3 °C at AQ STING (G230A-R293Q).

The record behind these values is US20240166681A1, “3'3' CYCLIC DINUCLEOTIDES CONTAINING ISONUCLEOTIDIC UNITS” (INSTITUTE OF ORGANIC CHEMISTRY AND BIOCHEMISTRY AS CR, V. …, priority 2021, published 2024).
